From ChEMBL document CHEMBL1201862, “PubChem BioAssay data set” (2004)
Calls of active or inactive are those of the source.

How the values were obtained:
[1] = cells
[2] = biological target: T1, Protein skinhead-1 (Caenorhabditis elegans, UniProt P34707); type: functional
T1 sequence (P34707 whole entry): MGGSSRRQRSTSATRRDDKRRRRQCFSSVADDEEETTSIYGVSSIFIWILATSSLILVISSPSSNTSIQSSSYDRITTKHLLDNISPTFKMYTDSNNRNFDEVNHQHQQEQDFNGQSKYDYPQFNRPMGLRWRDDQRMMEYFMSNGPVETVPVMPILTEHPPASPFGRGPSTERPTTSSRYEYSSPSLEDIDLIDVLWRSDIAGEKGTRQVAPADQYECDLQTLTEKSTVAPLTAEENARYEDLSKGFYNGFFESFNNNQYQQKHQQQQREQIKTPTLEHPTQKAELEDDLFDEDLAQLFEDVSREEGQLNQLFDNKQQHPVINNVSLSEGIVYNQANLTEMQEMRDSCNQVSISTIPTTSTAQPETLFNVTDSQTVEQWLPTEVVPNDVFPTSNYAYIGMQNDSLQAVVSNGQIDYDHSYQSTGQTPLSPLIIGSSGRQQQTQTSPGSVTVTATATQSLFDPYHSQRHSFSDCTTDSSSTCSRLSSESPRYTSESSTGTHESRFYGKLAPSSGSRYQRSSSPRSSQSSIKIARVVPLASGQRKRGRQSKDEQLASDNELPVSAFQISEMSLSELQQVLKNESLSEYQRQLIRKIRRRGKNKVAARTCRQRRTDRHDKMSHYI

[3] = biological target: T2, Heat shock factor protein 1 (Mus musculus, UniProt P38532); test: enhancement of HSF1-driven luciferase signal – cell-based, NIH3T3, luminescence, dose retest, confirmation (AID 435004); type: functional;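 note: stress induced by proteasome inhibitor MG132 added 30 min after compound; luciferase reporter driven by HSF1 response element in NIH3T3 cells; actives raise luminescence as potentiators of the MG132 stress response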
T2 sequence (P38532 whole entry): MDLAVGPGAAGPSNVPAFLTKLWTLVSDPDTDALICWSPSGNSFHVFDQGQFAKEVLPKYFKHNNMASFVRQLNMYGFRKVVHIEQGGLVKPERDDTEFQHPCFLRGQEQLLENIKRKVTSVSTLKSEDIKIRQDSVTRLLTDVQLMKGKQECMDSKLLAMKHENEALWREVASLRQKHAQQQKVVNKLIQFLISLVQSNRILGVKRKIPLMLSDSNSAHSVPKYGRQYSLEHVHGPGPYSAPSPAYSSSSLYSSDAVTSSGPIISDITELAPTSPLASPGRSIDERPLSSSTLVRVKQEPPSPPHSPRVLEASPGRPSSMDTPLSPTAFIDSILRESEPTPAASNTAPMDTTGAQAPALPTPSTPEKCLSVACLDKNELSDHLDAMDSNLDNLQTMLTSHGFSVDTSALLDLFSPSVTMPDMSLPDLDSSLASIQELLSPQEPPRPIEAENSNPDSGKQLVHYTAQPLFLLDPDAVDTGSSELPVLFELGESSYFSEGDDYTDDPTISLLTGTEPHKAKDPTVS

[4] = viability of PTEN-deleted HCT116 cells – cell-based, HCT116 PTEN knockout, dose response (AID 1047); type: functional;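 note: HCT116 colon tumor cells with PTEN knocked out; cells exposed to compound for 60 hours before readout; potency for loss of cell viability measured by luminescence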
[5] = viability of HCT116 lacking mutant beta-catenin – cell-based, human colon tumor, dose response (AID 1045); type: functional;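 note: HCT116 colon tumor cells with beta catenin knocked out; cells exposed to compound for 60 hours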
[6] = toxicity to human HepG2 hepatoma cells – cell-based, plate reader, dry powder samples, cytotoxicity control, dose response (AID 1159569); type: functional;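 note: inhibitor potency with signal falling toward the positive control level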
[7] = Dd2 malaria parasite growth inhibition potency – SYBR Green, dry powder samples, dose response (AID 1159566); type: functional, cell-based;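 note: potency for growth inhibition with lower SYBR green DNA signal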
[8] = growth inhibition of PfATP4-mutant resistant parasites – NITD609-resistant line, SYBR Green, dry powder, dose response (AID 1159571); type: functional, cell-based;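 note: parasites synchronized at ring stage by sorbitol before testing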
[9] = growth inhibition of yeast DHODH-expressing 3D7 parasites – SYBR Green, dry powder samples, dose response (AID 1159570); type: functional, cell-based;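 note: parasite growth measured after 72 hours of compound exposure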
[10] = P. falciparum Dd2 growth inhibitors, dose response, SYBR Green, cherry-picked samples (AID 1159567); type: functional, cell-based
[11] = Trypanosoma cruzi growth suppression in host cells – NIH3T3 host cells, beta-gal luminescence, confirmation (AID 2044); type: functional, cell-based;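 note: intracellular parasites grown in NIH/3T3 mouse fibroblasts as host cells; luminescent beta-galactosidase reporter signal from transgenic T. cruzi replicating inside host cells; inhibitors lower the luminescence signal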
[12] = NIH3T3 cell viability loss – ATP luminescence, mouse fibroblasts, counter-screen, dose response (AID 2010); type: functional, cell-based;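 note: cells exposed to compound for about 90 hours before reading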
[13] = cells; remark: listed apart in the source
[14] = A cytotoxicity screen of small molecule inhibitors of the PhoP region in Salmonella typhi identified in the primary screen. [Related pubchem assays: 1850, 1864, 1985 ]; type: functional
[15] = fluconazole-exposed Candida albicans growth modulators – fluorescence, retest, confirmation (AID 2467); type: functional, cell-based
[16] = NIH-3T3 fibroblast cytotoxicity, dose response, cytotoxicity control, cell-based, fluorescence, Alamar Blue, secondary assay (AID 2327); type: functional;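 note: NIH-3T3 mouse fibroblasts cultured with fluconazole at 8 µg/mL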
[17] = biological target: T3, Calpain-2 catalytic subunit (Sus scrofa, UniProt P43367); test: m-calpain protease blockers, concentration series – biochemical, fluorogenic peptide substrate, dose response (AID 1420); type: functional
T3 sequence (P43367 whole entry): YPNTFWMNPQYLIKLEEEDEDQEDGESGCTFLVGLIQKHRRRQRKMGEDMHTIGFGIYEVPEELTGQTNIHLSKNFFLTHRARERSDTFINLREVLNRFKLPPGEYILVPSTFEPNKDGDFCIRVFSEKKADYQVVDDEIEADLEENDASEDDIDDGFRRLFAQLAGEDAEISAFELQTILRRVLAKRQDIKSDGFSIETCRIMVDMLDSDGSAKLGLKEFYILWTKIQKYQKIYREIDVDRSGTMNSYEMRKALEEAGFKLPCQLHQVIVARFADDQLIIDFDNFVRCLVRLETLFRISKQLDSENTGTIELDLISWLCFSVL

[18] = biological target: T4, Ubiquitin-conjugating enzyme E2 N (Homo sapiens, UniProt P61088); type: functional;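 note: Dose-response confirmation in a TR-FRET assay detecting UBC13-driven polyubiquitin chain formation, inhibition measured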
T4 sequence (P61088 whole entry): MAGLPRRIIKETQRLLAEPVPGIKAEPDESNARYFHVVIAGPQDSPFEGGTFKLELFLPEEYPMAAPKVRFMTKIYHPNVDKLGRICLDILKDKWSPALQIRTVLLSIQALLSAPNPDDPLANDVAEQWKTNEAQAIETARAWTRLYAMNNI

[19] = Luminescence Cell-Based Dose Retest to Confirm Inhibitors of Cancer Stem Cells. [Related pubchem assays (depositor defined):AID2717, AID2721]; type: functional; conditions: Homo sapiens
[20] = viability of uninfected HEp-2 cells – cell-based, HTS, cytotoxicity control for RSV inhibitor project, dose response (AID 2410); type: functional; conditions: human respiratory syncytial virus
[21] = alpha-synuclein stem-loop luciferase translation blockers – H4 neuroglioma cells, luminescence, confirmation (AID 1988); type: functional, cell-based
[22] = luciferase reporter signal suppression in cells – H4 neuroglioma cells, luminescence, dose response (AID 1990); type: functional, cell-based
[23] = Luminescence Cell-Based Dose Response HTS to Identify Inhibitors of 5'UTR Stem-Loop Driven Prion Protein mRNA Translation in H4 Neuroglioblastoma Cells. [Related pubchem assays: 1827 (Project Summary), 1813 (Primary HTS)]; type: functional
[24] = biological target: T5, Short transient receptor potential channel 4 (Mus musculus, UniProt Q9QUQ5); test: calcium entry via TRPC4 opening agents – cell-based, HEK293 TRPC4/mu-opioid, Fluo-4 calcium, dose response (AID 434937); type: functional
T5 sequence (Q9QUQ5 whole entry): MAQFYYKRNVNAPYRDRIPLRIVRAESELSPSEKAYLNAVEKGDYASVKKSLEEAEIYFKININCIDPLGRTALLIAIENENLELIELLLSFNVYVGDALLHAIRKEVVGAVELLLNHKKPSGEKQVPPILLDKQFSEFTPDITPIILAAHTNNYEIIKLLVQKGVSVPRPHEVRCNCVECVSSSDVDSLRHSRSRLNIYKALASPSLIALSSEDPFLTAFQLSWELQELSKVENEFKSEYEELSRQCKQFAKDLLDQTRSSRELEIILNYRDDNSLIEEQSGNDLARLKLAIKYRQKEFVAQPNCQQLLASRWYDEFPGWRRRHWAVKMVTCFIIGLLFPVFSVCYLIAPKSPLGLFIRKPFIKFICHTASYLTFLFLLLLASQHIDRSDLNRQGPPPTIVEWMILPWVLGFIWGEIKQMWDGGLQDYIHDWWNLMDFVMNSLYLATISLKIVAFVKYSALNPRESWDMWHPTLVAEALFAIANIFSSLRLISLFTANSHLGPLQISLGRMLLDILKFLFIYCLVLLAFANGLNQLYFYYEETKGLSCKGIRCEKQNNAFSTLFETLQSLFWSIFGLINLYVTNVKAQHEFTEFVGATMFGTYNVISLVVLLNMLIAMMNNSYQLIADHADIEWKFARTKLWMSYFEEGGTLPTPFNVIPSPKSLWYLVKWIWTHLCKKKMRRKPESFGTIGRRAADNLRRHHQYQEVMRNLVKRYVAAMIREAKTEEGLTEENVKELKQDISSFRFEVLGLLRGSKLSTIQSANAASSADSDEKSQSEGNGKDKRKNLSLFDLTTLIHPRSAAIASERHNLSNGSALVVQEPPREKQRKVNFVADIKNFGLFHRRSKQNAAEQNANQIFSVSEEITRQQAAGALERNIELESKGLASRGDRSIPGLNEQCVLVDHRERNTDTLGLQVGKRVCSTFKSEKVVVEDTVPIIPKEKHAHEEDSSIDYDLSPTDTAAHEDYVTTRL

[25] = tested on: Vero; test: cells; type: functional; conditions: Chlorocebus sabaeus

## O=C(CSc1nc2ccccc2c2nc3ccccc3n12)NCc1ccco1
[1]
  IC50: 45.6 µM (active)
[2]
  IC50: > 100 µM (inactive)
[3]
  EC50: > 260 µM (inactive)

## O=C(/C=C/c1ccccc1)Nc1nnc(SCC(=O)c2ccc3ccccc3c2)s1
[4]
  EC50: 9.17 µM (active)
[5]
  EC50: 9.72 µM (active)

## COc1ccccc1CN1C[C@@H]2N[C@H](C1)[C@@H]2c1ccc(-c2ccncc2)cc1
[6]
  AC50: 24.6 µM (active)
[7]
  AC50: 2.02 µM (active)
[8]
  AC50: 3.07 µM (active)
[9]
  AC50: 3.59 µM (active)
[10]
  AC50: 2.48 µM (active)

## CCn1nc(C)c(CN2CCCC(C(=O)c3cccc(OC(C)C)c3)C2)c1C (configuration not stated)
[11]
  EC50: < 0.1 µM (active)
[12]
  EC50: > 60 µM (not active)
[13]
  EC50: 0.21 µM (active)

## O=C(Nc1nonc1NC(=O)c1cccs1)c1cccs1
[14]
  EC50: > 50 µM (active)
[15]
  EC50: 0.44 µM (active)
[16]
  EC50: > 150 µM (inactive)

## O=C(CCCN1C(=O)c2cccc3cccc(c23)C1=O)N1CCN(c2ccccn2)CC1
[17]
  IC50: 2.13 µM (not active)

## O=C(OCc1nnc(-c2ccccc2)o1)C12CC3CC(CC(Br)(C3)C1)C2
[17]
  IC50: 3.14 µM (not active)

## COc1ccc2cc3cc(C(=O)Nc4ccccc4N4CCN(C)CC4)oc3nc2c1
[18]
  IC50: > 20 µM (inactive)
[11]
  EC50: 1.65 µM (active)
[12]
  EC50: 4.47 µM (active)
[4]
  EC50: 1.43 µM (active)
[5]
  EC50: 2.25 µM (active)

## N#Cc1ccc(-c2ccc(OCC(=O)NCCCN3CCCC3=O)cc2)cc1
[14]
  EC50: > 50 µM (active)

## Cc1ccc(S(=O)(=O)NCC(=O)OCN2C(=O)c3ccccc3C2=O)cc1
[14]
  EC50: > 50 µM (active)

## Cc1ccccc1-n1nnnc1SCc1ncc(-c2ccccc2)o1
[17]
  IC50: 5.05 µM (not active)

## O=C(Nc1ccncc1)c1cc(-c2cccc(Br)c2)nc2ccccc12
[19]
  AC50: 5.05 µM (active)
[20]
  CC50: 22.7 µM (active)
[21]
  EC50: > 120 µM (not active)
[22]
  EC50: > 120 µM (not active)
[1]
  IC50: 17.4 µM (active)
[23]
  EC50: > 120 µM (not active)

## C=CCSc1nc2sc3c(c2c(=O)n1-c1ccccc1)CCN(C)C3
[11]
  EC50: < 0.1 µM (active)
[12]
  EC50: > 60 µM (not active)
[13]
  EC50: 0.474 µM (active)

## CC(C)Cc1ccc(CN2CCCC(NC(=O)CCn3cnnn3)C2)cc1 (configuration not stated)
[24]
  EC50: 4.22 µM (active)
[11]
  EC50: < 0.1 µM (active)
[12]
  EC50: > 30 µM (not active)
[13]
  EC50: 0.046 µM (active)

## COc1ccccc1NC(=O)/C=C\C(=O)O
[17]
  IC50: 17.4 µM (not active)

## C[C@H]1CN([C@@H](C)CO)C(=O)c2c(c3ccccc3n2C)-c2ccccc2CO[C@H]1CN(C)C(=O)Nc1ccc(-c2ccccc2)cc1
[6]
  AC50: > 100 µM (inactive)
[7]
  AC50: 0.656 µM (active)
[8]
  AC50: 0.634 µM (active)
[9]
  AC50: 2.71 µM (active)
[10]
  AC50: 2.08 µM (active)

## Cc1c2ccccc2nc2c(F)c(NCCO)c(F)c(F)c12
[20]
  CC50: 1.77 µM (active)
[1]
  IC50: 1.53 µM (active)
[15]
  EC50: > 38 µM (not active)
[16]
  EC50: > 160 µM (inactive)

## COc1ccc(CNc2nc3ccccc3n2C)c(O)c1
[14]
  EC50: > 50 µM (active)

## Clc1ccc(C(c2ccccc2)N2CCNCC2)cc1 (configuration not stated) [NORCHLORCYCLIZINE]
[14]
  EC50: > 50 µM (active)

## CN(C)CCCN(C(=O)c1nc2ccccc2s1)c1nc2ccc(F)cc2s1
[11]
  EC50: < 0.1 µM (active)
[12]
  EC50: > 60 µM (not active)
[13]
  EC50: < 0.004 µM (active)
[25]
  CC50: > 25 µM (active)

## CC(=O)Nc1ccc(S(=O)(=O)NCC2CCC(C(=O)NCCC3=CCCCC3)CC2)cc1 (configuration not stated)
[17]
  IC50: 9.12 µM (not active)

## CCNC(=O)Oc1cccnc1O
[14]
  EC50: > 50 µM (active)
